In US11185531B2, “Arginine methyltransferase inhibitors and uses thereof” (Epizyme, Inc., priority 2013, dated 2021):

What follows are compounds tested against T1, human PRMT3 (Homo sapiens, UniProt O60678) (assay: PRMT3 Biochemical Assay (3H-SAM Flashplate, peptide substrate)). Conditions: 30 min preincubation.
T1 construct: GST-tagged PRMT3; made in house; host or cells: E. coli BL21(DE3) Gold
From the text: Peptide containing the classic RMT substrate motif was synthesized with an N-terminal linker-affinity tag motif and a C-terminal amide cap by 21st Century Biochemicals. The peptide was purified by high-performance liquid chromatography (HPLC) to greater than 95% purity and confirmed by liquid chromatography mass spectrometry (LC-MS). The sequence was Biot-Ahx-[…]-amide (SEQ ID NO:11).
Full-length human PRMT3 (NM_005788.3) isoform 1 transcript clone was amplified from an HEK 293 cDNA library and subcloned into pGEX-KG (GE Life Sciences). The resulting construct encodes an N-terminal GST tag and a thrombin cleavage sequence
GST-tagged PRMT3 was eluted with 50 mM Tris, 2 mM glutathione, pH 7.1 and 50 mM Tris, 20 mM glutathione, pH 7.1. Pooled fractions were dialysed in 20 mM Tris, 50 mM NaCl, 5% glycerol, 1 mM EDTA, 1 mM DTT, pH7.5 (Buffer B) and applied to a Q Sepharose Fast Flow column. GST-tagged PRMT3 was eluted by 500 mM NaCl in buffer B. Pooled fractions were dialyzed in 25 mM phosphate buffer, 100 mM NaCl, 5% glycerol, 2 mM DTT, pH 6.8 (Buffer C) and loaded on to a ceramic hydroxyapatite column. GST-tagged PRMT3 eluted with 25-400 mM phosphate in buffer C. Protein was concentrated and buffer was exchanged to 20 mM Tris, 150 mM NaCl, 5% glycerol, 5 mM β-mercaptoethanol, pH7.8 by ultrafiltration. The purity of recovered protein was 70%.
General Procedure for PRMT3 Enzyme Assays on Peptide Substrates.
The assays were all performed in a buffer consisting of 20 mM Bicine (pH=7.6), 1 mM TCEP, 0.005% BSG, and 0.002% Tween 20, prepared on the day of use. Compounds in 100% DMSO (1 ul) were spotted into a polypropylene 384-well V-bottom plates (Greiner) using a Platemate Plus outfitted with a 384-channel head (Thermo Scientific). DMSO (1 ul) was added to Columns 11, 12, 23, 24, rows A-H for the maximum signal control and 1 ul of SAH, a known product and inhibitor of PRMT3, was added to columns 11, 12, 23, 24, rows I-P for the minimum signal control. A cocktail (40 ul) containing the PRMT3 enzyme was added by Multidrop Combi (Thermo-Fisher). The compounds were allowed to incubate with PRMT3 for 30 min at room temperature, then a cocktail (10 ul) containing SAM and peptide was added to initiate the reaction (final volume=51 ul). The final concentrations of the components were as follows: PRMT3 was 0.5 nM, ^3H-SAM was 100 nM, non-radiolabeled SAM was 1.8 uM, peptide was 330 nM, SAH in the minimum signal control wells was 1 mM, and the DMSO concentration was 2%. The assays were stopped by the addition of potassium chloride (10 ul) to a final concentration of 100 mM. 50 ul of the reaction in the 384-well polypropylene plate was then transferred to a 384-well Flashplate and the biotinylated peptides were allowed to bind to the streptavidin surface for at least 1 hour before being washed once with 0.1% Tween20 in a Biotek ELx405 plate washer. The plates were then read in a PerkinElmer TopCount plate reader to measure the quantity of ^3H-labeled peptide bound to the Flashplate surface, measured as disintegrations per minute (dpm) or alternatively, referred to as counts per minute (cpm).
Where dpm=disintegrations per minute, cmpd=signal in assay well, and min and max are the respective minimum and maximum signal controls.
Where top and bottom are the normally allowed to float, but may be fixed at 100 or 0 respectively in a 3-parameter fit. The Hill Coefficient normally allowed to float but may also be fixed at 1 in a 3-parameter fit. Y is the % inhibition and X is the compound concentration.

T1 sequence (O60678 with tags, fused parts or gaps): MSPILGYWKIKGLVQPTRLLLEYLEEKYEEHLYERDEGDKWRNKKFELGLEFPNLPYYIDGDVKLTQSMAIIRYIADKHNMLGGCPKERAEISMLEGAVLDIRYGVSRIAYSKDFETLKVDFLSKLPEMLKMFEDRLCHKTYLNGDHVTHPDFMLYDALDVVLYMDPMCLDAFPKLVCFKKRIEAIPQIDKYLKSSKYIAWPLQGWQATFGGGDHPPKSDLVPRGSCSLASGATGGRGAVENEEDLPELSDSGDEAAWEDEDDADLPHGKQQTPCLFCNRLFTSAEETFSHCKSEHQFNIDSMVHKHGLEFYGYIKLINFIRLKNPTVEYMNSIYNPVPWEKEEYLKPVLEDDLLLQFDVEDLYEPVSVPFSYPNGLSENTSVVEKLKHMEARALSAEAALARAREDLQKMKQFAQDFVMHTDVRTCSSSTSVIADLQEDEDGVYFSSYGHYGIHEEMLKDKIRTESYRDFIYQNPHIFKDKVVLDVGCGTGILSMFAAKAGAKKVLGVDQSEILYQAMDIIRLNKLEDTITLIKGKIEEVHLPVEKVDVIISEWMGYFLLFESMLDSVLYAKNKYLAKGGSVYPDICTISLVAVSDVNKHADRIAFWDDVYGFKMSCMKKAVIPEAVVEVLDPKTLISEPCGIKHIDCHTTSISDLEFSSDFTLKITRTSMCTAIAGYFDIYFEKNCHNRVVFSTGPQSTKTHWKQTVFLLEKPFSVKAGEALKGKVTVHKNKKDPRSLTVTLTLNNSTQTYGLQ

Q: With `CNCCN(C)Cc1c[nH]nc1C#Cc1cccc(OC)c1` [Compound 1] as the compound, how does the IC50 read?
A: The IC50 was 3.01 to 10 µM.

Q: How did the IC50 turn out when `CNCCN(C)Cc1c[nH]nc1C#Cc1ccc(C(C)(C)C)cc1` [Compound 2] was run?
A: Its IC50 is 1.01 to 3 µM.

Q: For `CNCCN(C)Cc1c[nH]nc1C#Cc1ccccc1` [Compound 3], which IC50 is on record?
A: Its IC50 is 3.01 to 10 µM.

Q: With `CNCCN(C)Cc1c[nH]nc1/C=C/c1ccc(-c2ccccc2)cc1` [Compound 5] as the compound, how does the IC50 read?
A: The IC50 was 1.01 to 3 µM.

Q: For `CNCCN(C)Cc1c[nH]nc1/C=C/c1ccc(C(F)(F)F)cc1` [Compound 6], which IC50 is on record?
A: Its IC50 is 3.01 to 10 µM.

Q: Which IC50 does the source give for `CNCCN(C)Cc1c[nH]nc1/C=C/c1ccc(OC)cc1` [Compound 7] here?
A: Its IC50 is 3.01 to 10 µM.

Q: With `Cc1ccc(/C=C/c2n[nH]cc2CN(C)CCN)cc1` [Compound 8] as the compound, how does the IC50 read?
A: The IC50 was 3.01 to 10 µM.

Q: `COc1cc(/C=C/c2n[nH]cc2CN(C)CCN)cc(OC)c1` [Compound 11] was tested. Which IC50 did it give?
A: Its IC50 is 1.01 to 3 µM.

Q: `CN(CCN)Cc1c[nH]nc1/C=C/c1ccc(F)cc1F` [Compound 13] was tested. Which IC50 did it give?
A: Its IC50 is 3.01 to 10 µM.

Q: How did the IC50 turn out when `CN(CCN)Cc1c[nH]nc1/C=C/c1cc(C(F)(F)F)cc(C(F)(F)F)c1` [Compound 14] was run?
A: Its IC50 is 3.01 to 10 µM.

Q: With `CN(CCN)Cc1c[nH]nc1/C=C/c1cc(F)cc(F)c1` [Compound 15] as the compound, how does the IC50 read?
A: Its IC50 is 1.01 to 3 µM.

Q: Which IC50 does the source give for `CN(CCN)Cc1c[nH]nc1/C=C/c1cccc(C(F)(F)F)c1` [Compound 16] here?
A: The IC50 was 3.01 to 10 µM.

Q: With `COc1cccc(/C=C/c2n[nH]cc2CN(C)CCN)c1` [Compound 17] as the compound, how does the IC50 read?
A: Its IC50 is 1.01 to 3 µM.

Q: For `CN(CCN)Cc1c[nH]nc1/C=C/c1ccc(C(F)(F)F)cc1` [Compound 18], which IC50 is on record?
A: Its IC50 is 1.01 to 3 µM.

Q: With `COC/C=C/c1n[nH]cc1CN(C)CCN` [Compound 19] as the compound, how does the IC50 read?
A: The IC50 was 3.01 to 10 µM.

Q: How did the IC50 turn out when `CN(CCN)Cc1c[nH]nc1/C=C/c1cccc(F)c1` [Compound 20] was run?
A: The IC50 was 1.01 to 3 µM.

Q: For `CN(CCN)Cc1c[nH]nc1C1CCCCC1` [Compound 22], which IC50 is on record?
A: Its IC50 is 3.01 to 10 µM.

Q: `CN(CCN)Cc1c[nH]nc1CCc1ccc(F)cc1` [Compound 23, N^1-((3-(4-fluorophenethyl)-1H-pyrazol-4-yl)methyl)-N^1-methylethane-1,2-diamine] was tested. Which IC50 did it give?
A: Its IC50 is 3.01 to 10 µM.

The compounds below were run on mono-methyl arginine in RKO cells (assay: RKO Methylation Assay, In Cell Western for mono-methyl arginine). Conditions: Homo sapiens, 72 hours, percent activation of mono-methyl arginine signal.
Format: cell-based
From the text: RKO adherent cells were purchased from ATCC (American Type Culture Collection), Manassas, Va., USA. DMEM/Glutamax medium, penicillin-streptomycin, heat inactivated fetal bovine serum, 0.05% trypsin and D-PBS were purchased from Life Technologies, Grand Island, N.Y., USA. Odyssey blocking buffer, 800 CW goat anti-rabbit IgG (H+L) antibody, and Licor Odyssey infrared scanner were purchased from Licor Biosciences, Lincoln, Nebr., USA. Mono-methyl arginine antibody was purchased from Cell Signaling Technology, Danvers, Mass., USA. Methanol was purchased from VWR, Franklin, Mass., USA. 10% Tween 20 was purchased from KPL, Inc., Gaithersburg, Md., USA. DRAQ5 was purchased from Biostatus Limited, Leicestershire, UK.
RKO adherent cells were maintained in growth medium (DMEM/Glutamax medium supplemented with 10% v/v heat inactivated fetal bovine serum and 100 units/mL penicillin-streptomycin) and cultured at 37° C. under 5% CO2.
Cell Treatment, in Cell Western (ICW) for Detection of Mono-Methyl Arginine and DNA Content.
RKO cells were seeded in assay medium at a concentration of 20,000 cells per mL to a poly-D-lysine coated 384 well culture plate (BD Biosciences 356697) with 50 μL per well. Compound (100 nL) from a 96-well source plate was added directly to 384 well cell plate. Plates were incubated at 37° C., 5% CO2 for 72 hours. After three days of incubation, plates were brought to room temperature outside of the incubator for ten minutes and blotted on paper towels to remove cell media. 50 μL of ice cold 100% methanol was added directly to each well and incubated for 30 min at room temperature. After 30 min, plates were transferred to a Biotek EL406 plate washer and washed 2 times with 100 μL per well of wash buffer (IX PBS). Next 60 μL per well of Odyssey blocking buffer (Odyssey Buffer with 0.1% Tween 20 (v/v)) were added to each plate and incubated 1 hour at room temperature. Blocking buffer was removed and 20 μL per well of primary antibody was added (mono-methyl arginine diluted 1:200 in Odyssey buffer with 0.1% Tween 20 (v/v)) and plates were incubated overnight (16 hours) at 4° C. Plates were washed 5 times with 100 μL per well of wash buffer. Next 20 μL per well of secondary antibody was added (1:200 800 CW goat anti-rabbit IgG (H+L) antibody, 1:1000 DRAQ5 (Biostatus limited) in Odyssey buffer with 0.1% Tween 20 (v/v)) and incubated for 1 hour at room temperature. The plates were washed 5 times with 100 μL per well wash buffer then 2 times with 100 μL per well of water. Plates were allowed to dry at room temperature then imaged on the Licor Odyssey machine which measures integrated intensity at 700 nm and 800 nm wavelengths. Both 700 and 800 channels were scanned.
First, the ratio for each well was determined by:
Each plate included fourteen control wells of DMSO only treatment (minimum activation) as well as fourteen control wells for maximum activation treated with 20 μM of a reference compound. The average of the ratio values for each control type was calculated and used to determine the percent activation for each test well in the plate. Reference compound was serially diluted three-fold in DMSO for a total of nine test concentrations, beginning at 20 μM. Percent activation was determined and EC30 curves were generated using triplicate wells per concentration of compound.

Q: With `CN(CCN)Cc1c[nH]nc1C1=CCOCC1` [Compound 10] as the compound, how does the EC30 read?
A: Its EC30 is > 12 µM.

Q: How did the EC30 turn out when `CC(C)c1n[nH]cc1CN(C)CCN` [Compound 21] was run?
A: Its EC30 is > 12 µM.

Q: How did the EC30 turn out when `CN(CCN)Cc1c[nH]nc1C1CCCCC1` [Compound 22] was run?
A: Its EC30 is < 3 µM.

Q: How did the EC30 turn out when `CN(CCN)Cc1c[nH]nc1CCc1ccc(F)cc1` [Compound 23, N^1-((3-(4-fluorophenethyl)-1H-pyrazol-4-yl)methyl)-N^1-methylethane-1,2-diamine] was run?
A: Its EC30 is < 3 µM.

Q: Which EC30 does the source give for `CN(CCN)Cc1c[nH]nc1/C=C/Cc1ccccc1` [Compound 24] here?
A: Its EC30 is < 3 µM.

Q: `CN(CCN)Cc1c[nH]nc1C1=CCCC1` [Compound 25] was tested. Which EC30 did it give?
A: The EC30 was 3.01 to 12 µM.

Q: For `CN(CCN)Cc1c[nH]nc1C1CCC1` [Compound 26], which EC30 is on record?
A: The EC30 was > 12 µM.

Q: With `CCCc1n[nH]cc1CN(C)CCN` [Compound 29] as the compound, how does the EC30 read?
A: Its EC30 is > 12 µM.

Q: `Cc1n[nH]cc1CN(C)CCN` [Compound 30] was tested. Which EC30 did it give?
A: The EC30 was > 12 µM.

Q: Which EC30 does the source give for `CN(CCN)Cc1c[nH]nc1C1CCCC1` [Compound 31] here?
A: Its EC30 is > 12 µM.

Q: For `CNCCN(C)Cc1c[nH]nc1C1CCN(C(=O)Cc2ccccc2)CC1` [Compound 32], which EC30 is on record?
A: The EC30 was < 3 µM.

Q: Which EC30 does the source give for `CN(CCN)Cc1n[nH]cc1C1CCCCC1` [Compound 33] here?
A: The EC30 was 3.01 to 12 µM.

Q: `CNCCN(C)Cc1c[nH]nc1C1CCN(C(=O)C(C)C)CC1` [Compound 34] was tested. Which EC30 did it give?
A: The EC30 was < 3 µM.

Q: Which EC30 does the source give for `CC1CCC(c2c[nH]nc2CN(C)CCN)CC1` (stereo not drawn) [Compound 35] here?
A: Its EC30 is < 3 µM.

Q: `CN(CCN)Cc1n[nH]cc1C1CCC(C)(C)CC1` [Compound 36] was tested. Which EC30 did it give?
A: Its EC30 is < 3 µM.

Q: With `CC1CCC(c2n[nH]cc2CN(C)CCN)CC1` (stereo not drawn) [Compound 37, N^1-methyl-N^1-((3-(4-methylcyclohexyl)-1H-pyrazol-4-yl)methyl)ethane-1,2-diamine] as the compound, how does the EC30 read?
A: Its EC30 is < 3 µM.

Q: For `CN(CCN)Cc1c[nH]nc1C1CCC(C)(C)CC1` [Compound 38, N^1-((3-(4,4-dimethylcyclohexyl)-1H-pyrazol-4-yl)methyl)-N^1-methylethane-1,2-diamine], which EC30 is on record?
A: Its EC30 is < 3 µM.

Q: With `CNCCN(C)Cc1c[nH]nc1C1CCN(CC(C)C)CC1` [Compound 39, N^1-((3-(1-isobutylpiperidin-4-yl)-1H-pyrazol-4-yl)methyl)-N^1,N^2-dimethylethane-1,2-diamine] as the compound, how does the EC30 read?
A: The EC30 was < 3 µM.

Q: How did the EC30 turn out when `CNCCN(C)Cc1c[nH]nc1C1CCN(C)CC1` [Compound 41] was run?
A: Its EC30 is > 12 µM.

Q: For `CNCCN(C)Cc1c[nH]nc1C1CCNCC1` [Compound 42], which EC30 is on record?
A: The EC30 was > 12 µM.

Q: For `CN(CCN)Cc1n[nH]cc1C1CCC(N2CCOCC2)CC1` (stereo not drawn) [Compound 44, N^1-methyl-N^1-((4-(4-morpholinocyclohexyl)-1H-pyrazol-3-yl)methyl)ethane-1,2-diamine], which EC30 is on record?
A: Its EC30 is 3.01 to 12 µM.
